Assay results: PubChem BioAssay AID449762 (Southern Research Specialized Biocontainment Screening …, 2010)
Inconclusive results are not listed.

Tested on: M. tuberculosis H37Rv growth inhibition, 7H9 media
Assay: M. tuberculosis growth inhibition, HTS (AID 449762);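 further: bacterial growth assessed after seven days of incubation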
Details: for IC90: measured here: IC90 growth inhibition

| Structure (SMILES) | IC50 [µM] | IC90 [µM] |
| --- | --- | --- |
| Cc1ccc(S(=O)(=O)NC(CC(C)C)C(=O)N2CCN(C/C=C/c3ccccc3)CC2)cc1 (stereo unspecified) | 46.8 | 52.7 |
| OCCCNc1cc(-c2ccnc(Nc3cccc(Cl)c3)n2)ccn1 | 20.8 | 45 |
| COc1cccc(NC(=S)/C(=C(\[O-])c2cc(C)n(-c3ccccc3F)c2C)[n+]2ccc(N(C)C)cc2)c1 | 55.9 | 70.9 |
| Clc1nc2c(-c3ccccc3)nnn2c2ccccc12 | 9.39 | 16.6 |
| COc1ccc(-c2nc(NC(=O)Cn3ccc(C(F)(F)F)n3)sc2C)cc1 | < 0.2 | 2.92 |
| COc1ccc(C2c3[nH]c4ccccc4c3CCN2C(=O)c2cc3ncccn3n2)c(F)c1 (stereo unspecified) |  | > 100 |
| Cc1ccc2c(c1)nnn2C1CCN(CC(=O)N2CCN(c3ccc(F)cc3)CC2)CC1 | 35.3 | > 100 |
| N#CC(C#N)=c1ccc2c(c1)N1C3=C(CCCC3)CC3CCCCC31N=2 (stereo unspecified) | 11.5 | 13.1 |
| CC(C)=N/N=C1/NC(=O)C(Cc2ccccc2)S1 (stereo unspecified) | 23.4 | 25.9 |
| O=C1C2C(C(=O)N1/N=C/c1ccc([N+](=O)[O-])o1)C1C=CC2C12CC2 (stereo unspecified) | 19 | 29.6 |
| COC(=O)C(C)Oc1ccc(-c2nccc(-c3ccccn3)n2)cc1 (stereo unspecified) | 1.73 | 4.04 |
| CCc1ccc(N=Nc2ccc(O)c3[nH]cnc23)cc1 | 15.4 | > 100 |
| CC1CCN(c2nc(Cl)nc(Nc3ccc([N+](=O)[O-])cc3)n2)CC1 | 79.8 | > 100 |
| CN(C)N=Nc1nc[nH]c1C(N)=O | 4.86 | 6.76 |
| CCN(CC)c1ccc(N)cc1 | 7.15 | 9.95 |
| COC(=O)C1=C(C)NC(=O)/C1=C\c1cc(C)n(-c2cccc(C)c2)c1C |  | > 100 |
| CC(C)C(=O)Nc1cccc(-c2nc3ccccc3c(=O)o2)c1 | 44.3 | > 100 |
| Cc1ccn2c(-c3csc(NCc4ccccc4)n3)c(C)nc2c1 | 46.8 | 52.8 |
| COCc1cc(=O)[nH]c(Nc2nc3ccccc3o2)n1 | 1.6 | 7.06 |
| O=C(/C=C/c1cn(-c2ccccc2)nc1-c1cccnc1)c1ccco1 | 14.8 | 46.6 |
| c1ccc(CN2CCC3(CCCc4ccccc43)CC2)cc1 | 10.3 | 13.6 |
| COc1ccc(-c2cc3c(=O)n(CC(=O)NCCCN4CCC(Cc5ccccc5)CC4)ncn3n2)cc1 | 23.7 | 26.2 |
| CCOC(=O)c1csc(-c2snnc2C)n1 | 21.4 | 52 |

| Structure (SMILES) | IC50 [µM] | IC90 [µM] |
| --- | --- | --- |
| Cc1ccc(-c2cccc(NC(=O)C3C4C=CC(C4)C3C(=O)O)c2)o1 (stereo unspecified) | 74.2 | > 100 |
| Cc1nc2ccccc2c2nc3ccccc3n12 | 33.8 | 55.2 |
| COc1ccc(-c2nc(CN3CCN(c4cc(C)nc(C)c4)CC3)c(C)o2)c2ccccc12 | 19.6 | 25.2 |
| Cc1ccc(C(=O)CC(SCC(=O)O)c2ccc([N+](=O)[O-])cc2)cc1 (stereo unspecified) | 5.78 | 6.72 |
| COc1ccccc1N(O)C1CC(=O)N(c2ccc(Br)cc2)C1=O (stereo unspecified) | 16.8 | 32.3 |
| O=Nc1c2nc3ccccc3n(O)c-2c2ccccc12 | 10.7 | 15.7 |
| COc1ccc(-c2cc(C3CCN(Cc4cccc(C(F)(F)F)c4)CC3)[nH]n2)cc1 | 10.6 | 15.9 |
| CCCc1ncc(CN2CCCC(C(=O)Nc3ccc(-c4cccc(OC)c4)cc3)C2)cn1 (stereo unspecified) |  | > 100 |
| Cc1ccnc(NC(=O)CCc2c[nH]c3ccccc23)c1 | 25.8 | 54.4 |
| C/C(=N\Nc1ccc(S(=O)(=O)N2CCCCC2)cn1)c1cccc(Br)c1 | 32.7 | > 100 |
| CN1C(=O)N(C)c2ccc(C=O)c3cccc1c23 | 41 | 57.2 |
| COc1ccccc1OC(=O)c1ccc(S(=O)(=O)N(C)C)cc1 | 9.96 | 18.4 |
| COc1ccc(N2CCN(C(=O)c3ccc(CNc4c(N5CCOCC5)c(=O)c4=O)cc3)CC2)cc1 | 2.42 | 5.17 |
| CCCc1cc(=O)n2[nH]c(C)c(-c3ccc(Cl)cc3)c2n1 | 6.8 | 18.1 |
| Cc1cccc(C2=N/C(=C\c3cccs3)C(=O)O2)c1 | 2.68 | 15.5 |
| Cc1ccc(NCCC(=O)c2ccc(Br)cc2)cc1 | 10.6 | 21.5 |
| COc1ccc(-n2c(-c3ccc(Cl)cc3)c[n+]3c2CCc2ccccc2-3)cc1 | 16.4 | 24.2 |
| NC1=NC2(CCC(c3ccccc3)CC2)n2c(nc3ccccc32)N1 (stereo unspecified) | 28.6 | 38.3 |
| Fc1ccc(N/N=C2/CC(c3ccccc3)Oc3ccccc32)c(F)c1 (stereo unspecified) |  | > 100 |
| CCc1cc(C(=O)Nc2ccc(C)cc2Br)cs1 | 30 | > 100 |
| CCC(=O)N1c2ccc(S(=O)(=O)CCC(=O)N3CCn4c3nc3ccccc34)cc2CC1C (stereo unspecified) | 9.28 | 19.5 |
| CC(C)Cn1c([N+](=O)[O-])nc2c1c(=O)[nH]c(=O)n2C | 5.93 | 8.91 |
